Test results taken from patent US11884905B2, “Fluidic chip for cell culture use, culture vessel, and culture method” (University Public Corporation Osaka, priority 2017, dated 2024).

Columns and labels:
Format in all cases: cell-based
Conditions in all cases: culture solution containing 20 μM doxorubicin, 24 hours, optical microscope
[1] = test system: human bronchial epithelial cells; experiment: Fluidic chip three-dimensional culture with doxorubicin, bronchial epithelial cells downstream of hepatoma cells (control)
Method: (§1) Cardiac toxicity known as efficacy and side effect of doxorubicin widely used as an anticancer drug was assessed using the fluidic chip for cell culture use according to the present invention.
(§2) First, five culture vessels 9a each enclosing human hepatoma-derived cells were manufactured, three culture vessels 9b each enclosing human umbilical vein endothelial cells were manufactured, three culture vessels 9c each enclosing human myocardial cells were manufactured, three culture vessels 9d each enclosing human bronchial epithelial cells were manufactured, and three culture vessels 9e each enclosing human fibroblast cells were manufactured. These culture vessels 9a to 9e were subjected to preparatory culture (cultured in three dimensions) for two days in wells 33 of the multi-well plate 32, respectively. The culture vessels were manufactured in the same manner as in the cell culture experiment (1), except that the kinds of the cells to be cultured were changed. FIG. 15 illustrates the photograph of the multi-well plate 32 after the preparatory culture.
(§3) Thereafter, the culture vessels 9a to 9e were set on an optical microscope, and the cultured cells were observed. […] Then, sample cells in good condition in shape were only extracted. […]

human myocardial cells = experiment: Fluidic chip three-dimensional culture with doxorubicin, cardiac toxicity on myocardial cells downstream of hepatoma cells
Method: as §1, §2, §3

[2] = test system: human hepatoma-derived cells; experiment: Fluidic chip three-dimensional culture with doxorubicin, hepatoma cells (upstream)
Method: as §1, §2, §3

human fibroblast cells = experiment: Fluidic chip three-dimensional culture with doxorubicin, fibroblast cells downstream of hepatoma cells (control)
Method: as §1, §2, §3

In the case of `COc1cccc2c1C(=O)c1c(O)c3c(c(O)c1C2=O)C[C@@](O)(C(=O)CO)C[C@@H]3O[C@H]1C[C@H](N)[C@H](O)[C@H](C)O1` [doxorubicin], the “change in shape / growth of bronchial epithelial cells” value [1] is reported as “a branch of a bronchus was wide and continued to grow”, the “change in shape of myocardial cells (cardiac toxicity)” value (human myocardial cells) is reported as “entirely reduced in size” and the “change in shape of hepatoma cells (infiltrating portions), efficacy as anticancer drug” value [2] is reported as “the infiltrating portions disappear within twenty-four hours”. The “change in shape / growth of fibroblast cells” value (human fibroblast cells) was “the fibroblast cells continued to grow”.
